Legend:
[1] = Pharmacokinetic property evaluation test in CD-1 mice, intravenous; format: in vivo; conditions: both sexes, mouse, plasma, intravenous injection, 3 mg/kg, single administration, non-compartment model; for half-life: read-out: Terminal t1/2 (converted); for Vd: read-out: Vss
Protocol: Experimental animals: CD-1 mice, males and females; weight: 20-25 g;
[…] Route of administration: intravenous injection. […] Dosage: 3 mg/kg.
Sample collection: Blood was collected at the following time points: 5 min, 15 min, 30 min, 1 hr, 2 hr, 4 hr, 8 hr, and 24 hr after administration.
Sample analysis: The collected samples were tested using the LC-MS/MS method. The instrument model was API4000.
Pharmacokinetic data analysis: The obtained plasma concentration data were fitted and calculated according to the non-compartment model using WinNolin, and some results are summarized in Table 2.

[2] = biological target: VEGFR1 (Homo sapiens, UniProt P17948); assay: Caliper Mobility Shift Assay, kinase inhibition; format: biochemical; conditions: read-out: Kinase inhibitory activity (IC50, nM) VEGFR1
VEGFR1, sequence (P17948 27-1338, species assumed): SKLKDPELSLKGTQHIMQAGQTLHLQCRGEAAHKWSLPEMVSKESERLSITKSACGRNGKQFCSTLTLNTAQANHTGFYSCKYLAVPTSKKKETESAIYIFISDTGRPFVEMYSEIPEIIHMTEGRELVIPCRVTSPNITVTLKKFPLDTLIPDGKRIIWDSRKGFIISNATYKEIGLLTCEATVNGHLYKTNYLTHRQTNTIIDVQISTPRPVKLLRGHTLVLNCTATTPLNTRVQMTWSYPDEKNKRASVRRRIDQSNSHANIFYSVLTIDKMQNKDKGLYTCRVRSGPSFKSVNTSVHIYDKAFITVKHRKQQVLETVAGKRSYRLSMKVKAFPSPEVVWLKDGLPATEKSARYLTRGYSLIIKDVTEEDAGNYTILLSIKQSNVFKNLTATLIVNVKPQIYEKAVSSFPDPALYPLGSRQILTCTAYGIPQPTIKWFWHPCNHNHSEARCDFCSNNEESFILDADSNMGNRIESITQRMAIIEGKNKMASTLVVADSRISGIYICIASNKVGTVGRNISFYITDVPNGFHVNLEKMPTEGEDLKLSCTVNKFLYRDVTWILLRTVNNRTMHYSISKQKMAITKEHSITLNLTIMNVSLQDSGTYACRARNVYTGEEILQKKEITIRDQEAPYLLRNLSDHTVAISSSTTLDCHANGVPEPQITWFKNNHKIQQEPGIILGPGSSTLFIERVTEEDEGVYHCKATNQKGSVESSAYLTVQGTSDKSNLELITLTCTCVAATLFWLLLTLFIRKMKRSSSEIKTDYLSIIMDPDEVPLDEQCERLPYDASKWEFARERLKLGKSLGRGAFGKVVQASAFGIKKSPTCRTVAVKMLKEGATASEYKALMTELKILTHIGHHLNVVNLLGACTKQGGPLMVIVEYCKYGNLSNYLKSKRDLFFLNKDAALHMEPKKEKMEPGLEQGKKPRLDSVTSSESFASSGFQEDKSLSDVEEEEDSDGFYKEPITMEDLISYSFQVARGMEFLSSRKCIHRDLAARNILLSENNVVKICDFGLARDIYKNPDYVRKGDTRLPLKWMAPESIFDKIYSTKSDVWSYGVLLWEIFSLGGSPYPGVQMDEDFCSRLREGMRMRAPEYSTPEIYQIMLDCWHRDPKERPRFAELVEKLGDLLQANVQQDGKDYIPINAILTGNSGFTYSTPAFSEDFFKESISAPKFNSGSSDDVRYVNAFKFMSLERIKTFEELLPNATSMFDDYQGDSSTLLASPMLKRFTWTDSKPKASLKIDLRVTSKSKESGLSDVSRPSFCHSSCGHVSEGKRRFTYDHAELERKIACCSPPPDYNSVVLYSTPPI

[3] = biological target: RET (Homo sapiens, UniProt P07949); assay: Caliper Mobility Shift Assay, kinase inhibition; format: biochemical; conditions: read-out: Kinase inhibitory activity (IC50, nM) RET
RET, sequence (P07949 29-1114, species assumed): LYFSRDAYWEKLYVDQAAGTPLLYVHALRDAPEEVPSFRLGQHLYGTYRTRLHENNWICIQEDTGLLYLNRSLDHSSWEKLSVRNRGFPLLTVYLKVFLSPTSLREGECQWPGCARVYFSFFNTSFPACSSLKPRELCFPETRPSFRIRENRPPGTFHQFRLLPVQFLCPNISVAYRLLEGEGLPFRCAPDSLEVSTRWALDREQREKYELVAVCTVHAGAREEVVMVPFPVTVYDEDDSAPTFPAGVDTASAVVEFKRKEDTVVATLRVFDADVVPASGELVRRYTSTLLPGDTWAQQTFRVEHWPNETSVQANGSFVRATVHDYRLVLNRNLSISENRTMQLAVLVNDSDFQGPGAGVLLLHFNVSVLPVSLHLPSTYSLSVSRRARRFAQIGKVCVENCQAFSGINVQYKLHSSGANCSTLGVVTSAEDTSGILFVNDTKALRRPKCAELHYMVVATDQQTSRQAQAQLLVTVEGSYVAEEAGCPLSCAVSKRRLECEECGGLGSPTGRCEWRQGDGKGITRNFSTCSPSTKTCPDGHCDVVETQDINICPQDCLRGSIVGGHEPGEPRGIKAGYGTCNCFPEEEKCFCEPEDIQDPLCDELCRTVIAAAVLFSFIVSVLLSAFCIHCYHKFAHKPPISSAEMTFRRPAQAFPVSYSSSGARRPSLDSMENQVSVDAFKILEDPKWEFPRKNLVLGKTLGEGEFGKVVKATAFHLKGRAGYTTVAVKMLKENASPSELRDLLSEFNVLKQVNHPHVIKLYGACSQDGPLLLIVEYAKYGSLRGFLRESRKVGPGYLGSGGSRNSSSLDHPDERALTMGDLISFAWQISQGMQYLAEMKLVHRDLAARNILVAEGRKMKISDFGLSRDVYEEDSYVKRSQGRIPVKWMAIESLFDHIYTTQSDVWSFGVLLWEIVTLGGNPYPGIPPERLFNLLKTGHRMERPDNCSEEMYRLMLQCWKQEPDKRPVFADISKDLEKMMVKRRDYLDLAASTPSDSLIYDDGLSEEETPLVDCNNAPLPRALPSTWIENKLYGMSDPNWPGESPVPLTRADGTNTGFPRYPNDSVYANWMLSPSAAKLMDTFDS

[4] = biological target: PDGFRα (Homo sapiens, UniProt P16234); assay: Caliper Mobility Shift Assay, kinase inhibition; format: biochemical; conditions: read-out: Kinase inhibitory activity (IC50, nM) PDGFRα
[5] = biological target: VEGFR2 (Homo sapiens, UniProt P35968); assay: Caliper Mobility Shift Assay, kinase inhibition; format: biochemical; conditions: read-out: Kinase inhibitory activity (IC50, nM) VEGFR2
[6] = biological target: T1, FLT3 (Homo sapiens, UniProt P36888); assay: Caliper Mobility Shift Assay, kinase inhibition; format: biochemical; conditions: read-out: Kinase inhibitory activity (IC50, nM) FLT3
T1 sequence (P36888 27-993): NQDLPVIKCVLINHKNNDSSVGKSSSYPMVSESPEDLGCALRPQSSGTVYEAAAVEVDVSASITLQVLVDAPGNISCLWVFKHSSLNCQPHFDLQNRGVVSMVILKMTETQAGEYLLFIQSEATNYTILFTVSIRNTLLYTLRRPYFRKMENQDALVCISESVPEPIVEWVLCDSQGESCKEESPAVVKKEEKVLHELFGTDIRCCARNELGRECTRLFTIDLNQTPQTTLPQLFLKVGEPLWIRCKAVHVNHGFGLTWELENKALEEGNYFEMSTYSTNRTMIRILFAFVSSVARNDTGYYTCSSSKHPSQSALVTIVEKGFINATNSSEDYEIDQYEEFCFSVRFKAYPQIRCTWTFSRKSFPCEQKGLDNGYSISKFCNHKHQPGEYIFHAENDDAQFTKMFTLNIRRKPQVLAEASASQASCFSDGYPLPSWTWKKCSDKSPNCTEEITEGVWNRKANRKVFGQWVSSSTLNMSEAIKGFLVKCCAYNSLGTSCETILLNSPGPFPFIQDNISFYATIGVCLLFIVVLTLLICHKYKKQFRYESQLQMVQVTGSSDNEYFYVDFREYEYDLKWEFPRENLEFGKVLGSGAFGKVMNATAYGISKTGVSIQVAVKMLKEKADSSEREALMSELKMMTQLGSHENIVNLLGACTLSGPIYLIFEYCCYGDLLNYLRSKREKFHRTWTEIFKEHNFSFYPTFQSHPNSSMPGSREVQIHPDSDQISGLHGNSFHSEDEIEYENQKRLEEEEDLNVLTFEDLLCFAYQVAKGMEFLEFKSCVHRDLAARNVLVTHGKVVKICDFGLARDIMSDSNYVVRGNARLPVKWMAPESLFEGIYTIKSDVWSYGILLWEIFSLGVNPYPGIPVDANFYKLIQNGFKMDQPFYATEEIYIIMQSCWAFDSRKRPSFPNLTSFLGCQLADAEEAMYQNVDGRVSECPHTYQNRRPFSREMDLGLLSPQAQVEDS

[7] = biological target: EGFR (Homo sapiens, UniProt P00533); assay: Caliper Mobility Shift Assay, kinase inhibition; format: biochemical; conditions: read-out: Kinase inhibitory activity (IC50, nM) EGFR
EGFR, sequence (P00533 25-1210, species assumed): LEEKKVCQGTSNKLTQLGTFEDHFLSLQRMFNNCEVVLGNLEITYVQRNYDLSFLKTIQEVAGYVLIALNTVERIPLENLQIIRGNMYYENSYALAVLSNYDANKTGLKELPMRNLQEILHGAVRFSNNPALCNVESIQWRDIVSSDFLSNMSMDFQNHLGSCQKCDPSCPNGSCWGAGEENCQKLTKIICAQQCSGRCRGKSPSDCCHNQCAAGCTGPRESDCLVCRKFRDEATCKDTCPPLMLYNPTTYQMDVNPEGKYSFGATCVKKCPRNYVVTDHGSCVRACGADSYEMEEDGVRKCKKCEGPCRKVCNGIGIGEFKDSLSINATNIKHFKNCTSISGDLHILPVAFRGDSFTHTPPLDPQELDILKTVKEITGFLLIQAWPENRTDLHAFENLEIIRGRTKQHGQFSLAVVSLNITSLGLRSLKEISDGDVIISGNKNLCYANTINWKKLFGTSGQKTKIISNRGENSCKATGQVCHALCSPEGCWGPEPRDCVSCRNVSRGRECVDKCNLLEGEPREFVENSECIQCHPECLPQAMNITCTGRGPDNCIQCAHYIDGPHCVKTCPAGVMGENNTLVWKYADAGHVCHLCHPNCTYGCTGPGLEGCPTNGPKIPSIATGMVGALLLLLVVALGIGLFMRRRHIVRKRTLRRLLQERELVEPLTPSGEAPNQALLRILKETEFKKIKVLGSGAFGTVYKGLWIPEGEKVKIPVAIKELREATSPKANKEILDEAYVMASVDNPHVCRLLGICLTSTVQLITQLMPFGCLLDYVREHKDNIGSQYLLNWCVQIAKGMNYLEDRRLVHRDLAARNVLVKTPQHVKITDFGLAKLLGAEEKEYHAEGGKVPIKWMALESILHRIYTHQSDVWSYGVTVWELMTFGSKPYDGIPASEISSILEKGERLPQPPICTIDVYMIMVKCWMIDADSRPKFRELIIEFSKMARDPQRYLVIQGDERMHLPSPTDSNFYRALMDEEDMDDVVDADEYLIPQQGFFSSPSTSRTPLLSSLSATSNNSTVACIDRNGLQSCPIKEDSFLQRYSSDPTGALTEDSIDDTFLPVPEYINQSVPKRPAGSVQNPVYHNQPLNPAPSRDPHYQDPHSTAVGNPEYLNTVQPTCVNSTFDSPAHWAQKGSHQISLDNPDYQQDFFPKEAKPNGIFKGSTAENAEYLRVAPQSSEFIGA
Protocol: (§1) The semi-inhibitory concentration IC50 (the concentration of the compound required to inhibit the enzymatic activity to 50%) of a compound was measured by mixing a fixed enzyme with a specific substrate and the test compound of different concentrations. The test method used was Caliper Mobility Shift Assay, the kinases tested were VEGFR1, VEGFR2, VEGFR3, FLT3, PDGFRα, PDGFRβ, FGFR1, RET, EGFR and IGF1R, and the standard reference compound used was staurosporine.

[8] = biological target: IGF1R (Homo sapiens, UniProt P08069); assay: Caliper Mobility Shift Assay, kinase inhibition; format: biochemical; conditions: read-out: Kinase inhibitory activity (IC50, nM) IGF1R
Protocol: as §1

[9] = biological target: PDGFRβ (Homo sapiens, UniProt P09619); assay: Caliper Mobility Shift Assay, kinase inhibition; format: biochemical; conditions: read-out: Kinase inhibitory activity (IC50, nM) PDGFRβ
[10] = biological target: FGFR1 (Homo sapiens, UniProt P11362); assay: Caliper Mobility Shift Assay, kinase inhibition; format: biochemical; conditions: read-out: Kinase inhibitory activity (IC50, nM) FGFR1
[11] = biological target: VEGFR3 (Homo sapiens, UniProt P35916); assay: Caliper Mobility Shift Assay, kinase inhibition; format: biochemical; conditions: read-out: Kinase inhibitory activity (IC50, nM) VEGFR3
VEGFR3, sequence (P35916 25-1363, species assumed): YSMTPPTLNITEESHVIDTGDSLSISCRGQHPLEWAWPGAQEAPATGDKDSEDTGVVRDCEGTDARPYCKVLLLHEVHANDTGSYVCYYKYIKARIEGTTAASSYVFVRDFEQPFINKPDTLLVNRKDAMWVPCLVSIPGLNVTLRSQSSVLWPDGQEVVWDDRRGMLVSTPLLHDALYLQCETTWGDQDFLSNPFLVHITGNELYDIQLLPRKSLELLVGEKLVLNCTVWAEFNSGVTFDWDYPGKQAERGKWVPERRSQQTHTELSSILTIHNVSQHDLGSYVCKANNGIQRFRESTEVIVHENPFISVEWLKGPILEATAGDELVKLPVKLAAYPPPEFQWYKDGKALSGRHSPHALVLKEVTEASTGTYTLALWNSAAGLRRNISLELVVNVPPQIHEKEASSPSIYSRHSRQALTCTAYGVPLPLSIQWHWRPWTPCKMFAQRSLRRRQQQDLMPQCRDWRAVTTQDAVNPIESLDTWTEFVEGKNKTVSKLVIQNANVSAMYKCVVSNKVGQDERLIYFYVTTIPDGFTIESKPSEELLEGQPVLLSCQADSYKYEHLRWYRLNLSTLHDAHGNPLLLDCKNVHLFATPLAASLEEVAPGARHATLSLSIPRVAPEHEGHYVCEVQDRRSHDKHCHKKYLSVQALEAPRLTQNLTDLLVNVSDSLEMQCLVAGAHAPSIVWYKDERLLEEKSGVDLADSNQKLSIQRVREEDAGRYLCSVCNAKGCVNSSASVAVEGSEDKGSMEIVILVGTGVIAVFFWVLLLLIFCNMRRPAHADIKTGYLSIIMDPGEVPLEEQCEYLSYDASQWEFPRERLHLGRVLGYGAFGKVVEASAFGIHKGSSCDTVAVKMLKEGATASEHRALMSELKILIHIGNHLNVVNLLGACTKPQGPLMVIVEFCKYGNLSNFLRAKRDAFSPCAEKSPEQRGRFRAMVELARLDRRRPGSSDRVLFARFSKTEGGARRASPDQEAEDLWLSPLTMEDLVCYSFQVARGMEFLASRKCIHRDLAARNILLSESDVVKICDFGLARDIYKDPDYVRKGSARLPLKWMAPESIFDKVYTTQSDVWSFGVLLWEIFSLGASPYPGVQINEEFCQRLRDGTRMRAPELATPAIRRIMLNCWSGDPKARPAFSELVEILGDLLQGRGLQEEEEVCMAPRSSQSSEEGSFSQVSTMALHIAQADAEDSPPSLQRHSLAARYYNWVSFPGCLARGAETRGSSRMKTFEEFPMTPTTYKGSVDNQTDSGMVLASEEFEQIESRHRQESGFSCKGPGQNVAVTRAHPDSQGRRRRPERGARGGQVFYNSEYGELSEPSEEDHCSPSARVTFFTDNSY

**Q.** With `CNC(=O)c1cc2c(Oc3ccc(NC(=O)Nc4cnn(C)c4)cc3F)ccnc2cc1OC` [Compound of Formula Ia] as the molecule, how does the AUC(0-t) [1] read?
**A.** 2040 ng·h/mL

**Q.** What about the MRT inf [1] of the same molecule?
**A.** 20.4 min

**Q.** What about the clearance [1] of the same molecule?
**A.** 25.2 mL/min/kg

**Q.** What about the half-life [1] of the same molecule?
**A.** 28.2 min

**Q.** What about the Vd [1] of the same molecule?
**A.** 0.525 L/kg

**Q.** What about the IC50 [2] of the same molecule?
**A.** 381 nM

**Q.** And the IC50 [3]?
**A.** 106 nM

**Q.** What about the IC50 [4] of the same molecule?
**A.** 27 nM

**Q.** What about the IC50 [5] of the same molecule?
**A.** 2.4 nM

**Q.** What about the IC50 [6] of the same molecule?
**A.** 576 nM

**Q.** What about the IC50 [7] of the same molecule?
**A.** > 500000 nM

**Q.** And the IC50 [8]?
**A.** > 500000 nM

**Q.** What about the IC50 [9] of the same molecule?
**A.** 110 nM

**Q.** And the IC50 [10]?
**A.** > 1000 nM

**Q.** What about the IC50 [11] of the same molecule?
**A.** 56 nM

**Q.** With `COc1cc2nccc(Oc3ccc(NC(=O)Nc4cnn(C)c4)cc3F)c2cc1C(N)=O` [Compound of Formula Ib] as the molecule, how does the AUC(0-t) [1] read?
**A.** 1600 ng·h/mL

**Q.** And the MRT inf [1]?
**A.** 49.2 min

**Q.** What about the clearance [1] of the same molecule?
**A.** 30.5 mL/min/kg

**Q.** And the half-life [1]?
**A.** 134 min

**Q.** What about the Vd [1] of the same molecule?
**A.** 1.48 L/kg

**Q.** And the IC50 [2]?
**A.** 555 nM

**Q.** And the IC50 [3]?
**A.** 290 nM

**Q.** And the IC50 [4]?
**A.** 37 nM

**Q.** What about the IC50 [5] of the same molecule?
**A.** 3 nM

**Q.** And the IC50 [6]?
**A.** 890 nM

**Q.** And the IC50 [7]?
**A.** > 200000 nM

**Q.** And the IC50 [8]?
**A.** > 200000 nM

**Q.** What about the IC50 [9] of the same molecule?
**A.** 165 nM

**Q.** And the IC50 [10]?
**A.** > 1000 nM

**Q.** What about the IC50 [11] of the same molecule?
**A.** 84 nM

**Q.** For `COc1cc2nccc(Oc3ccc(NC(=O)Nc4cn[nH]c4)cc3F)c2cc1C(N)=O` [Compound of Formula Ic], which IC50 [2] is on record?
**A.** 831 nM

**Q.** What about the IC50 [3] of the same molecule?
**A.** 204 nM

**Q.** And the IC50 [4]?
**A.** 42 nM

**Q.** And the IC50 [5]?
**A.** 11 nM

**Q.** What about the IC50 [6] of the same molecule?
**A.** 708 nM

**Q.** What about the IC50 [7] of the same molecule?
**A.** > 200000 nM

**Q.** What about the IC50 [8] of the same molecule?
**A.** > 200000 nM

**Q.** What about the IC50 [9] of the same molecule?
**A.** 151 nM

**Q.** What about the IC50 [10] of the same molecule?
**A.** > 1000 nM

**Q.** What about the IC50 [11] of the same molecule?
**A.** 34 nM

**Q.** Which IC50 [7] does the source give for `CNC(=O)c1cc(Oc2ccc(NC(=O)Nc3ccc(Cl)c(C(F)(F)F)c3)c(F)c2)ccn1` [Regorafenib, regorafenib, reference compound] here?
**A.** 10600 nM

**Q.** What about the IC50 [8] of the same molecule?
**A.** > 400000 nM

From patent US10689361B2, “Quinoline derivative and use thereof” (priority 2016, dated 2020)
